This is an account of results in patent US20220306630A1, “AGONISTS OF ROR GAMMAt” (BRISTOL-MYERS SQUIBB COMPANY, priority 2019, published 2022).

For the assay, the target named is T1, RORgT (Homo sapiens, UniProt P51449).
T1 construct: Gal4 (fusion partner); expressed in transfected cells; host or cells: engineered Jurkat cells (Jurkat pEx/Gal/hRORγ CLBD/HYG pG5luc/blast)
T1 sequence (P51449 267-516): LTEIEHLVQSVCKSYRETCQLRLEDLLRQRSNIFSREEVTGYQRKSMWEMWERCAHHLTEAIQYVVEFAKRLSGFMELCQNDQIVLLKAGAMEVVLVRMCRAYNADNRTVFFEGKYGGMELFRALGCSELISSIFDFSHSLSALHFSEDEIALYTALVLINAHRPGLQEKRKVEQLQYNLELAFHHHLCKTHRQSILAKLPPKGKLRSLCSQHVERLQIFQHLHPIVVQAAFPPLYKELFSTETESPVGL
Nature of the assay: RORgT Gal4 Luciferase Reporter Gene Assay. The note with it: engineered Jurkat cells overexpressing RORgT (LBD or full length) with Gal4 Luc reporter; 18 hours at 37° C.; 40 μM to 0.67 nM; read-out: RORg_GAL4 EC50. The assay is classed as cell-based. In a few lines: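 Cells exposed to compound 18 hours at 37° C, then lysed for luciferase luminescence. Inhibition of constitutive activity expressed as percent reduction of signal window relative to a control compound.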
(In a reporter assay the amount or activity of a reporter protein is the signal.)
As usually defined, the EC50 is the concentration needed to bring the measured effect to its halfway point. Regarding `COc1ccc(Oc2c(Cl)ccc(C(=O)N3CCC4(CC3)CN(S(C)(=O)=O)C4)c2Cl)cc1C(C)C` [Example 109], the EC50 amounted to 17 nM. Consider `COc1ccc(Oc2c(Cl)cc(NC(=O)CCn3cc(S(C)(=O)=O)cn3)cc2Cl)cc1C(C)C` [Example 9, N-(3,5-dichloro-4-(3-isopropyl-4-methoxyphenoxy)phenyl)-3-(4-(methylsulfonyl)-1H-pyrazol-1-yl)propanamide], for which the EC50 amounted to 81 nM. As for `COCCC(=O)Nc1cc(Cl)c(Oc2ccc(OC)c(C(C)C)c2)c(Cl)c1` [Example 300], the half-maximal effective concentration (EC50) was 591 nM. To `CC(C)(F)c1cc(F)cc(Oc2c(Cl)cc(NC(=O)CN3CCN(S(C)(=O)=O)CC3)cc2Cl)c1` [Example 334] belongs 6.6 nM; to `CCS(=O)(=O)N1CCC(OCC(=O)NCc2ccc(Cl)c(Oc3ccc(OC)c(C(C)C)c3)c2Cl)CC1` [Example 223], 1110 nM; to `COc1ccc(Oc2c(Cl)cc(NC(=O)CCCN3CCOCC3)cc2Cl)cc1C(C)C` [Example 298], 727 nM.

Consider `COc1ccc(Oc2c(Cl)ccc(NC(=O)CN3CCN(S(C)(=O)=O)CC3)c2Cl)cc1C(C)C` [Example 106], for which the EC50 amounted to 32 nM. `CC(c1cc(F)cc(Oc2c(Cl)cc(NC(=O)CC3CCN(S(C)(=O)=O)CC3)cc2Cl)c1)C(F)(F)F` (stereo not drawn) [Example 351]: the EC50 is 5.7 nM. With `COc1ccc(Oc2c(Cl)ccc(C(=O)N(C)CC3CCN(S(C)(=O)=O)CC3)c2Cl)cc1C(C)C` [Example 104] the figure was 15 nM; with `COCCNC(=O)c1ccc(Cl)c(Oc2ccc(OC)c(C(C)C)c2)c1Cl` [Example 183], 284 nM; with `COc1ncc(Oc2c(Cl)cc(NC(=O)CN3CCN(S(C)(=O)=O)CC3)cc2Cl)cc1C(C)C` [Example 17, N-(3,5-dichloro-4-((5-isopropyl-6-methoxypyridin-3-yl)oxy)phenyl)-2-(4-(methylsulfonyl)piperazin-1-yl)acetamide], 5.2 nM. `COc1ccc(Oc2c(Cl)cc(NC(=O)Cc3cncc(Cl)n3)cc2Cl)cc1C(C)C` [Example 239]: the EC50 was found to be 170 nM. Regarding `COc1ccc(Oc2c(Cl)cc(NC(=O)CN3CCC(NS(C)(=O)=O)CC3)cc2Cl)cc1C(C)C` [Example 169], the EC50 was 93 nM.

As for `COc1ccc(Oc2c(Cl)cc(NC(=O)CN3CC[C@@H](NS(=O)(=O)C4CC4)C3)cc2Cl)cc1C(C)C` [Example 161], the EC50 was found to be 2330 nM. With `COc1ccc(Oc2c(Cl)cc(NC(=O)CN3CC(NS(=O)(=O)C4CC4)C3)cc2Cl)cc1C(C)C` [Example 174] the figure was 286 nM; with `COc1ccc(Oc2c(Cl)cc(NC(=O)CCn3cncn3)cc2Cl)cc1C(C)C` [Example 245], 1560 nM; with `COc1ccc(Oc2c(Cl)cc(NC(=O)CN3CCC[C@H](NS(C)(=O)=O)C3)cc2Cl)cc1C(C)C` [Example 168], 270 nM. In the case of `COc1ccc(Oc2c(Cl)cc(N3CC(CNC(C)=O)OC3=O)cc2Cl)cc1C(C)C` (stereo not drawn) [Example 11, N-((3-(3,5-dichloro-4-(3-isopropyl-4-methoxyphenoxy)phenyl)-2-oxooxazolidin-5-yl)methyl)acetamide], the EC50 was 77 nM. Regarding `COc1ccc(Oc2c(Cl)cc(NC(=O)Cc3cccc(C#N)c3)cc2Cl)cc1C(C)C` [Example 4, 2-(3-cyanophenyl)-N-(3,5-dichloro-4-(3-isopropyl-4-methoxyphenoxy)phenyl) acetamide], the EC50 is 121 nM. Regarding `COc1ccc(Oc2c(Cl)cc(NC(=O)Cc3cccnc3)cc2Cl)cc1CC(C)C` [Example 311], the EC50 came out at 153 nM.

For `CC(C)(F)c1cc(F)cc(Oc2c(Cl)cc(NC(=O)Cc3ccc(S(C)(=O)=O)cc3)cc2Cl)c1` [Example 325], the EC50 turned out to be 7.2 nM. On to `COc1ccc(Oc2c(F)cc(NC(=O)Cc3cccnc3)cc2F)cc1C(C)C` [Example 40, N-(3,5-difluoro-4-(3-isopropyl-4-methoxyphenoxy)phenyl)-2-(pyridin-3-yl)acetamide], for which the EC50 came to 2450 nM. To `COc1ncc(Oc2c(Cl)ccc(C(=O)NC(C)c3ccc(S(C)(=O)=O)cc3)c2Cl)cc1C(C)C` (stereo not drawn) [Example 143] belongs 11.5 nM. For the molecule `COc1ccc(Oc2c(Cl)ccc(CNC(=O)CC3CCN(C(=O)C(F)(F)F)CC3)c2Cl)cc1C(C)C` [Example 175], the half-maximal effective concentration (EC50) turned out to be 345 nM. In the case of `CC1(c2cc(F)cc(Oc3c(Cl)ccc(C(=O)N4CCC5(CC4)CN(S(C)(=O)=O)C5)c3Cl)c2)CC1` [Example 277], the EC50 is 5.6 nM. For `CC(C)c1cc(Oc2c(Cl)cc(NC(=O)Cc3cccnc3)cc2Cl)ccc1Cl` [Example 265], the EC50 was 204 nM. Turning to `CC1(c2cc(F)cc(Oc3c(Cl)cc(NC(=O)CC4CCN(C(=O)C(F)(F)F)CC4)cc3Cl)c2)CC1` [Example 275], the EC50 worked out at 12 nM.

Consider `COc1ncc(Oc2c(Cl)ccc(C(=O)NCc3ccc(S(C)(=O)=O)cc3)c2Cl)cc1C(C)C` [Example 123], for which the EC50 is 5.4 nM. As to `CC(C)c1cc(F)cc(Oc2c(Cl)ccc(C(=O)NC(C)c3ccc(S(C)(=O)=O)cc3)c2Cl)c1` (stereo not drawn) [Example 140], the EC50 worked out at 9.3 nM.

Turning to `COc1ccc(Oc2c(Cl)ccc(C(=O)N3CC4(CCN(S(C)(=O)=O)CC4)C3)c2Cl)cc1C(C)C` [Example 68], the EC50 stood at 15 nM. Turning to `C=C(C)c1cc(F)cc(Oc2c(Cl)cc(NC(=O)CC3CCN(S(C)(=O)=O)CC3)cc2Cl)c1` [Example 358], the EC50 worked out at 6.6 nM. `COc1ccc(Oc2c(Cl)ccc(C(=O)Nc3cccnc3)c2Cl)cc1C(C)C` [Example 202]: the EC50 was 4490 nM. Take `CCS(=O)(=O)N1CCC(CNC(=O)c2ccc(Cl)c(Oc3cc(F)cc(C(C)C)c3)c2Cl)CC1` [Example 115]: the EC50 came out at 25 nM.

Consider `COc1ccc(Oc2c(Cl)ccc(C(=O)N3CCN(c4ccc(Cl)cc4)CC3)c2Cl)cc1C(C)C` [Example 230], for which the EC50 is 373 nM. With `COc1ncc(Oc2c(Cl)cc(NC(=O)CC3CCN(S(C)(=O)=O)CC3)cc2Cl)cc1C(C)(C)F` [Example 28, N-(3,5-dichloro-4-((5-(2-fluoropropan-2-yl)-6-methoxypyridin-3-yl)oxy)phenyl)-2-(1-(methylsulfonyl)piperidin-4-yl)acetamide] the figure was 6.9 nM; with `COc1ccc(Oc2c(Cl)cc(NC(=O)CCc3c(C)n[nH]c3C)cc2Cl)cc1C(C)C` [Example 249], 1640 nM.
